Data as given in US20210087496A1, “Non-Enzymatic Removal Of Proteinaceous Soils” (Henkel AG & Co. KGaA, priority 2019, published 2021).
Read-outs that look alike come from different tables or passages of the source.

Biological target: T1, Maillard product of lactose and albumin from chicken egg (band at ~50-55 kDa) (Gallus gallus, UniProt P01012)
T1 sequence (P01012 1-386): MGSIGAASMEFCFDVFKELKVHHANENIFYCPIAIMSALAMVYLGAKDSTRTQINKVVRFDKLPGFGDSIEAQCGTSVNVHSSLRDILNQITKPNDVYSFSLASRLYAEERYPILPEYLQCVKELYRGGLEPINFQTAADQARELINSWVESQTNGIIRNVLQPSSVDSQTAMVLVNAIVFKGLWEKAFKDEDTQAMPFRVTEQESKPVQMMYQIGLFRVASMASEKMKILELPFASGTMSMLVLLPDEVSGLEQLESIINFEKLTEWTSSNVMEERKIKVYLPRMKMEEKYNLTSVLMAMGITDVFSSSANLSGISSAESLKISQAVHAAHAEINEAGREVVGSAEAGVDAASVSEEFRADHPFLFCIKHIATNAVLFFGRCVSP
Settings: complex 0.2 mM, Maillard product 3 g/l, 60° C., pH 9.5
Procedure: A mixture of lactose and albumin from chicken egg, approx. 45 000 g/mol, in a weight ratio of 3:1 was dissolved in de-salinated water and stirred for 30 min at room temperature. The resulting solution was lyophilized using a commercial lab lyophilizer (Christ; Gamma 1-20) and homogenized. 0.5 g of the resulting powder was heated to 140° C. for 20 min and was then allowed to cool to room temperature. […] An aqueous solution of the Maillard product (3 g/l) was incubated at 60° C. at pH 9.5 (hydrogen carbonate/carbonate buffer) with the complexes of examples 1 and 2 at the concentrations and for amounts of time given in table 1. The progress of protein degradation was followed by SDS page gel analysis. The intensity value of the band at ˜50-55 kDa at time t=0, that is before the start of incubation, is set to 1.

For `O=C1CN2CCN3CC(=O)[O][Zr]([O]1)([O]c1ccccc1C2)[O]c1ccccc1C3` [Complex K1], the “Intensity of the band at ~50-55 kDa” value (t = 0 h (before start of incubation, set to 1)) was 1, the “Intensity of the band at ~50-55 kDa” value (t = 1 h, relative to t=0 set to 1) was 0.91 and the “Intensity of the band at ~50-55 kDa” value (t = 2 h, relative to t=0 set to 1) was 0.83.
